In US20200390755A1, “COMPOUND FOR TREATING NERVOUS SYSTEM DISEASES AND USE THEREOF” (SHAANXI MICOT TECHNOLOGY CO., LTD., priority 2018, published 2020):
Marks after values point to notes of the source that are not given here.

Assays:
N171-82Q HD mice [1] = test: Rotarod experiment, HD mice; assay type: in vivo, mouse; conditions: 5 mg/kg/d intragastric
Method: (§1) 7-week-old N171-82Q HD male mice were paired with female B6C3F1/J hybrid mice to obtain newborn mice. From 21 days of age, male mice were housed in separate cages. 0.5 cm of mouse tail tissue was removed to extract DNA to determine the genotype of the mouse, such that N171-82Q HD mice and WT mice needed for the experiment were obtained. The mice were randomly divided into WT Vehicle group (normal mice), WT test compound group (administration group of normal mice, 5 mg/kg/d, n=10), HD Vehicle group (blank group of HD mice, n=15), HD test compound group (administration groups 1-5 of HD mice, 5 mg/kg/d, n=10). The test compound was suspended in 1% CMC-Na solution and administered by intragastric administration until the end of the study. The weights of the mice were measured every week. Behavioral tests were performed at 12 weeks, 18 weeks, and 24 weeks of age to investigate motor function. At 20 weeks, 3 samples of tissue from each group were used for western blotting and immunohistochemistry. At 24 weeks, MRI scans were performed. At the end of the study, the effect of the test compound on the mortality of mice was evaluated.
(§2) The software Sigmaplot 13.0 was used for statistical analysis of the data, and the data of each group was expressed as mean standard error (x±SEM). Behavioral test results were analyzed using two-way (genotype and processing factor) ANOVA and post-ho tests, the comparison and statistics of weight data were performed using two-way (genotype and age) ANOVA of repeated measures, and mortality was counted using Kaplan-Meier method. Other measurement data were analyzed by one-way ANOVA. P<0.05 was considered statistically significant.
(§3) The motor function of mice was evaluated by the rotarod experiment and three types of balance beam experiments. The shorter the time for mouse to cross the balance beam, and the longer the time to drop, the stronger the coordination ability of the mouse.
The maximum time for mice fatigue rotarod was set to 5 minutes, and the acceleration was set from 4 rpm up to 40 rpm. Time record was began when the mouse was placed on the rotarod. The time the mouse remained on the rod, i.e., drop latent period, was recorded to indicate its motor coordination ability. One day before the rotarod experiment, each mouse was trained for 5 minutes, and then rested in the cage after the training session. On the day of the experiment, the mice were placed on the rotating rotarod for three rounds of tests, with a 30-minute rest between tests before entering the next round of test. The result was the average of the three tests.

N171-82Q HD mice [2] = test: DARPP32 protein level in striatum by Western blotting, HD mice; assay type: in vivo, mouse; conditions: 5 mg/kg/d until 25 weeks, WT Vehicle = 100, n = 3
Method: as §1
Dopamine and cAMP-regulated phosphoprotein (DARPP-32), with a molecular weight of 32 kDa, is a basic component of dopamine signaling cascade. A pathological feature of HD is the massive loss of MSNs which can express high level of DARPP32, in the striatum. Therefore, DARPP32 can be used as a marker of nerve damage and nerve dysfunction in the HD model. After the behavioral evaluation of the mice in each experimental group was completed and the administration continued until 25 weeks, 3 mice were taken from each group to separate hippocampal tissue, striatum, and neurocortex tissue. The total protein in the striatum tissue was extracted, and the protein level of DARPP 32 was detected by Western blotting experiment.
The striatum tissue block was lysed in 100 μL of lysis buffer (RIPA buffer 10 mL, protease inhibitor 100 μL, phosphatase inhibitor 100 μL) on ice for 30 min, and then pulverized with an ultrasonic cell pulverizer, and then centrifuged at 14000 rpm for 20 min at 4° C. The supernatant was transferred to a new 1.5 mL centrifuge tube. The protein was extracted, and the protein level of DARPP 32 was detected by Western blotting.

N171-82Q HD mice [3] = test: In vivo MRI scan and brain volume measurement, HD mice; design: species or system mouse; conditions: 5 mg/kg/d, administered until 24 weeks, n = 4
Method: as §1
The WT Vehicle group, WT test compound group, HD Vehicle group and HD test compound group were administered until 24 weeks, and 4 mice in each group were taken for in vivo MRI scanning and brain volume measurement. A 9.4 T MRI scanner equipped with three-axis gradient and animal imaging probes was used. The mice were anesthetized with 1% isoflurane. The breath of mice was monitored, and constant temperature was maintained throughout the scan. Three-dimensional T2 weighted fast spin echo sequence technology was used to obtain images. The imaging resolution and contrast of this technology were sufficient to automatically describe the volume of the mouse brain and substructures. The parameters were as follows: echo time (TE)/repetition time (TR) ^1/440/700 ms, resolution ^1/40.1×0.1×0.1 mm, echo train length ^1/44, average number ^1/42 and flip angle ^1/4408. The instrument contained a powerful linux cluster that can encode and run large-scale deformation diffusion metric maps (LDDMM) to obtain high-intensity standardized images. These transformations encoded morphological differences between images and analyzed based on deformation morphological measurements (DBM) to detect regional changes in brain volume. The volume of the whole brain (Brain), […] was analyzed.
The MRI scanning technology was used to analyze the morphological differences between the experimental object and the template image, and the LDDMM method was used to calculate and analyze the brain tissue structure of the mouse. The statistical results of the brain volume, striatum volume, and neurocortex volume of the test compound Example 1 are shown in FIG. 3, in which FIG. 3A is the statistical results of the whole brain volume, and FIG. 3B is the statistical results of striatum volume, and FIG. 3C is the statistical results of neurocortex volume.

N171-82Q HD mice [4] = test: Slope balance beam experiment, HD mice; assay type: in vivo, mouse; conditions: 5 mg/kg/d intragastric
Method: as §1, §2, §3
(§4) A square balance beam with a length of 100 cm and a width of 11 mm was placed at a 45-degree angle to the horizontal ground. A black box (12×12×12 cm) was placed at the end of the balance beam, and the starting platform was illuminated by bright lights. Spacers were placed under the balance beam to provide cushioning in case that the animal falls off the beam. One hour before the test, the mice were trained to cross the beam three times at one-eighth, one-quarter, and full-length distances from the black box, respectively. If the mice stopped walking during training, they were gently pressed with long forceps on the tail to encourage movement. After the training experiment, the mice rested for at least one hour in an undisturbed environment. In the experiment, the maximum time for each mouse to cross the balance beam was set to 60 seconds. If the time for crossing the beams was greater than 60 seconds, it was recorded as 60 seconds.

N171-82Q HD mice [5] = test: High-altitude balance beam (11 mm) experiment 1, HD mice; assay type: in vivo, mouse; conditions: 5 mg/kg/d intragastric
Method: as §1, §2, §3, §4
a round balance beam with a length of 80 cm and a diameter of 11 mm was place at a height of about 50 cm from the ground. The following steps are the same as the slope balance beam experiment.

| SMILES | Time to drop (drop latent period), rotarod (N171-82Q HD mice [1]; 12 w) | Time to drop (drop latent period), rotarod (N171-82Q HD mice [1]; 18 w) | Time to drop (drop latent period), rotarod (N171-82Q HD mice [1]; 24 w) | Relative intensity of DARPP32 protein (N171-82Q HD mice [2]) | MRI volume, Neurocortex (N171-82Q HD mice [3]) | MRI volume, Striatum (N171-82Q HD mice [3]) | MRI volume, Whole brain (N171-82Q HD mice [3]) | Time for crossing the beams, slope balance beam (N171-82Q HD mice [4]; 12 w) | Time for crossing the beams, slope balance beam (N171-82Q HD mice [4]; 18 w) | Time for crossing the beams, slope balance beam (N171-82Q HD mice [4]; 24 w) | Time for crossing the beams, high-altitude balance beam (11 mm) (N171-82Q HD mice [5]; 12 w) | Time for crossing the beams, high-altitude balance beam (11 mm) (N171-82Q HD mice [5]; 18 w) | Time for crossing the beams, high-altitude balance beam (11 mm) (N171-82Q HD mice [5]; 24 w) |
| --- | --- | --- | --- | --- | --- | --- | --- | --- | --- | --- | --- | --- | --- |
| CN(C)C1CCN(c2ccc(-c3cc(=O)c4ccc(O)c(O)c4o3)cc2)CC1 [Example 3, 2-(4-(4-(dimethylamino)piperidin-1-yl)phenyl)-7,8-dihydroxy-4H-chromen-4-one] | 94.15 ± 30.15 s | 103.40 ± 37.86 s | 90.06 ± 33.45 s | 97.032 ± 3.887 | 19.05 ± 0.997** mm^3 | 80.34 ± 1.238** mm^3 | 465.33 ± 9.218** mm^3 | 13.64 ± 6.90 s | 14.37 ± 5.81 s | 15.43 ± 4.58 s | 7.94 ± 1.64 s | 8.15 ± 1.96 s | 8.38 ± 3.78 s |
| O=c1cc(-c2ccc(N3CCCCC3)cc2)oc2c(O)c(O)ccc12 [Example 1, 7,8-dihydroxy-2-(4-(piperidin-1-yl)phenyl)-4H-chromen-4-one] | 95.90 ± 23.32 s | 101.03 ± 32.39 s | 83.55 ± 29.07 s | 96.971 ± 3.607 | 18.90 ± 0.341** mm^3 | 79.47 ± 1.079** mm^3 | 460.47 ± 2.145** mm^3 | 15.18 ± 3.95 s | 14.09 ± 3.18 s | 18.09 ± 6.02 s | 8.20 ± 1.64 s | 7.55 ± 2.42 s | 9.18 ± 3.84 s |
| COc1ccc2c(=O)cc(-c3ccc(N4CCCCC4)cc3)oc2c1OC [Example 2, 7,8-dimethoxy-2-(4-(piperidin-1-yl)phenyl)-4H-chromen-4-one] | 98.89 ± 21.35 s | 107.40 ± 27.48 s | 89.67 ± 30.76 s | 96.113 ± 2.681 | 18.68 ± 0.598** mm^3 | 79.10 ± 0.976** mm^3 | 449.97 ± 7.279** mm^3 | 17.88 ± 2.83 s | 17.13 ± 4.76 s | 19.00 ± 6.84 s | 8.98 ± 1.75 s | 8.59 ± 2.18 s | 9.68 ± 2.97 s |
| CC1CC(C)CN(c2ccc(-c3cc(=O)c4ccc(O)c(O)c4o3)cc2)C1 (centres unmarked) [Example 5, 2-(4-(3,5-dimethylpiperidin-1-yl)phenyl)-7,8-dihydroxy-4H-chromen-4-one] | 98.19 ± 29.17 s | 101.03 ± 32.39 s | 81.71 ± 30.15 s | 96.797 ± 3.018 | 19.01 ± 0.557** mm^3 | 79.43 ± 0.898** mm^3 | 462.19 ± 2.178** mm^3 | 14.94 ± 6.59 s | 16.67 ± 5.77 s | 18.58 ± 7.34 s | 8.04 ± 1.67 s | 8.61 ± 3.25 s | 9.77 ± 4.89 s |
| CC1(C)CCN(c2ccc(-c3cc(=O)c4ccc(O)c(O)c4o3)cc2)CC1 [Example 4, 2-(4-(4,4-dimethylpiperidin-1-yl)phenyl)-7,8-dihydroxy-4H-chromen-4-one] | 95.09 ± 27.23 s | 99.86 ± 30.27 s | 79.15 ± 34.17 s | 97.348 ± 3.438 | 18.59 ± 0.899** mm^3 | 79.03 ± 1.834** mm^3 | 461.31 ± 3.451** mm^3 | 16.78 ± 5.98 s | 17.00 ± 5.65 s | 18.38 ± 5.10 s | 8.57 ± 2.12 s | 8.99 ± 2.29 s | 9.38 ± 2.94 s |
